Experiment [1] concerns the target T1, Gag-Pol polyprotein (Human immunodeficiency virus type 1 group M subtype B (isolate NY5), UniProt P12497). Kind of experiment: RNA-dependent DNA Polymerase (RDDP) Assay. Particulars: pH 8.1; 37 °C. As for the experimental part:
RNA-dependent DNA polymerase (RDDP) activity was measured as described[J. Microbiol. […] After enzyme addition, the reaction mixture was incubated for 30 min at 37 °C, then the reaction was stopped by addition of EDTA.

Experiment [2] has as its target T1, Gag-Pol polyprotein. The experiment can be described thus: RNase H (RH) Assay. To be noted: pH 7.8; 37 °C. As for the experimental part: HIV RT-associated RNase H activity was measured as previously described.[J. Med. Chem. 2014, 57:3223-3234] Briefly, the reaction mixture comprised Tris HCl ([…], 50 mm, pH 7.8) containingMgCl2 (6 mm), dithiothreitol (1 mm), KCl (80 mm), hybrid RNA/DNA 5'-GAUCU GAGCC UGGGA GCU-Fluorescin-3' (0.25 mm; HPLC, dry, QC: Mass Check; Metabion, Steinkirchen, Germany), 5'-Dabcyl-AGCTC CCAGG CTCAG ATC-3' (HPLC, dry, QC: Mass Check), and HIV-1 RT (20 ng, according to a linear range of dose-activity curve). The reaction mixture was incubated for 1 h at 37 °C, and the reaction was stopped by addition of EDTA; products were measured with a Victor 3 multilabel counter plate reader (model 1420-051; PerkinElmer) equipped with filters (lex=490 nm, lem=528 nm).

Drawing on BindingDB's records for doi:10.1002/cbic.201500668 (University of Siena, 2016), this text covers IC50 for seven compounds.

On to `Cn1c(=O)c2c(nc3n2CC(O)CN3c2ccc(O)cc2)n(C)c1=O` (stereo unspecified) [MAS0 (1)], for which the results for the IC50 at Gag-Pol polyprotein [1] and against Gag-Pol polyprotein [2] were above 100 µM and 100 µM, respectively. `CCOC(=O)C(=O)CC(=O)/C=C/c1cccn1Cc1ccccc1Cl` [RDS1759] showed an IC50 against Gag-Pol polyprotein [2] of 7.5 µM. In turn, `CCc1ccc(N2CC(O)Cn3c2nc2c3c(=O)n(C)c(=O)n2C)cc1` (stereo unspecified) [STOCK2S-18057 (3)] returned an IC50 against Gag-Pol polyprotein [1] above 100 µM. `CCCCCn1c(=O)c2c(nc3n2CC(C)CN3c2ccc(OC)cc2)n(C)c1=O` (stereo unspecified) [STOCK4S-37006 (4)]: the 50% inhibitory concentration (IC50) against Gag-Pol polyprotein [1] amounted to 100 µM; on Gag-Pol polyprotein [2] it was 97 µM. With `CCOc1ccc(N2CC(O)Cn3c2nc2c3c(=O)n(CC(=O)OCc3ccccc3)c(=O)n2C)cc1` (stereo unspecified) [STOCK4S-60534 (6)], the IC50 was 28.5 µM against Gag-Pol polyprotein [1] and 33 µM against Gag-Pol polyprotein [2]. On to `CCCCCn1c(=O)c2c(nc3n2CCCN3c2ccc(Oc3ccccc3)cc2)n(C)c1=O` [STOCK5S-18255 (2)], for which the IC50 against Gag-Pol polyprotein [1] stood at 69 µM; against Gag-Pol polyprotein [2], 25 µM. On to `CCOc1ccc(N2CC(O)Cn3c2nc2c3c(=O)n(CC(N)=O)c(=O)n2C)cc1` (stereo unspecified) [STOCK5S-55040 (5)], for which, on Gag-Pol polyprotein [1], the IC50 was above 100 µM.
